{"source": "patent US5362740A", "about": "“Dihydrobenzofuran carboxamides and process for their preparation” (Farmitalia Carlo Erba S.r.l., priority 1990, dated 1994)", "key": {"5HT3 receptor [1]": {"target": "T1, 5HT3 receptor (Rattus norvegicus, UniProt P35563)", "T1 sequence (P35563 24-483)": "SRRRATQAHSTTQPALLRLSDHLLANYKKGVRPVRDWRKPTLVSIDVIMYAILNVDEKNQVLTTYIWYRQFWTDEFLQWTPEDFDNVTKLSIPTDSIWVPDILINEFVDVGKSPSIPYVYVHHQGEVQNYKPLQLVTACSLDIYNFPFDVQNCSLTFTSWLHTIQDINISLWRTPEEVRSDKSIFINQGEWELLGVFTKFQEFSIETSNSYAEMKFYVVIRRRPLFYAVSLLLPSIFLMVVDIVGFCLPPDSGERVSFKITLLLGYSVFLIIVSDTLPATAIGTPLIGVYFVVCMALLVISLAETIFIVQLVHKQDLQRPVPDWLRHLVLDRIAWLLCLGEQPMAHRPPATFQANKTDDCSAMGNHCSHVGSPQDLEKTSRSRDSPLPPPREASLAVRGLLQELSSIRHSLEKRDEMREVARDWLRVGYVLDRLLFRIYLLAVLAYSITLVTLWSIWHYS", "test": "Inhibition of the binding of ^3 H-GR65630; 5-HT3 binding affinity for rat entorhinal cortex", "design": "labeled in the entorhinal cortex of the rat brain; from tissue; host or cells: rat brain entorhinal cortex", "conditions": "for fitting model of interaction / displacement of ^3 H-GR 65630: rat entorhinal cortex"}, "5HT3 receptor [2]": {"target": "T1, 5HT3 receptor", "test": "Inhibition of the Bezold-Jarisch chemoreflex evoked by 5-HT in the anesthetized rat (in vivo 5HT3 antagonist activity)", "design": "evoked by 5-HT in the anesthetised rat; from tissue; host or cells: whole anesthetized rat (in vivo)", "conditions": "5-HT 20 μg/kg I.V.; for % inhibition: mean ± S.E.M. from 6 animals, *p < 0.01 vs controls (Dunnett's test); for ED50: iv, I.V., anesthetized rat, read-out: ED50 (limits)", "description": "Ther. 248, 197-201 (1989).\nInhibition of the Bezold-Jarisch reflex elicited by 5-HT (20 μg/\nValues are mean ± S.E.M. from 6 animals"}, "5-HT3 receptor": {"target": "5-HT3 receptor", "test": "Inhibition of the binding of ^3 H-GR65630; 5-HT3 binding affinity for rat entorhinal cortex", "conditions": "[^3 H] GR 65630 labeled 5HT3 sites; rat entorhinal cortex; two site non-linear fitting, low"}}, "data": [{"smiles": "Cc1nccn1CC1CCc2c(c3ccccc3n2C)C1=O", "note": "(racemic) [Ondansetron, (±)-1,2,3,4-tetrahydro-9-methyl-3-(2-methylimidazol-1-yl-methyl)-carbazol-4-one, reference compound]", "values": [{"measurement": "fitting model of interaction / displacement of ^3 H-GR 65630", "setting": "5HT3 receptor [1]", "result": "two site non-linear fitting model"}, {"measurement": "% inhibition", "setting": "5HT3 receptor [2]; 1 μg/kg I.V.", "result": "32.86 ± 8.58", "unit": "%"}, {"measurement": "% inhibition", "setting": "5HT3 receptor [2]; 3 μg/kg I.V.", "result": "58.42 ± 3.89", "unit": "%"}, {"measurement": "% inhibition", "setting": "5HT3 receptor [2]; 10 μg/kg I.V.", "result": "81.21 ± 1.82", "unit": "%"}, {"measurement": "ED50", "setting": "5HT3 receptor [2]", "result": 2.25, "unit": "µg/kg"}]}, {"smiles": "CN1C2CCCC1CC(NC(=O)c1cc(Cl)c(N)c3c1OCC3)C2", "note": "(stereo not drawn) [FCE 27270, 4-amino-5-chloro-N-(9-methyl-9-azabicyclo[3.3.1]non-3-yl)-2,3-dihydrobenzo[b]furan-7-carboxamide]", "values": [{"measurement": "Ki", "setting": "5HT3 receptor [1]", "result": 0.092, "unit": "nM"}, {"measurement": "fitting model of interaction / displacement of ^3 H-GR 65630", "setting": "5HT3 receptor [1]", "result": "two site non-linear fitting model"}, {"measurement": "Ki", "setting": "5-HT3 receptor", "result": 39, "unit": "nM"}, {"measurement": "% inhibition", "setting": "5HT3 receptor [2]; 0.1 μg/kg I.V.", "result": "37.25 ± 2.77", "unit": "%"}, {"measurement": "% inhibition", "setting": "5HT3 receptor [2]; 0.3 μg/kg I.V.", "result": "54.09 ± 3.39", "unit": "%"}, {"measurement": "% inhibition", "setting": "5HT3 receptor [2]; 1 μg/kg I.V.", "result": "89.11 ± 3.39", "unit": "%"}, {"measurement": "ED50", "setting": "5HT3 receptor [2]", "result": 0.2, "unit": "µg/kg"}]}, {"smiles": "CN1C2CCC1CC(NC(=O)c1cc(Cl)c(N)c3c1OCC3)C2", "note": "(stereo not drawn) [FCE 27271, 4-amino-5-chloro-N-(8-methyl-8-azabicyclo[3.2.1]oct-3-yl)-2,3-dihydrobenzo[b]furan-7-carboxamide]", "values": [{"measurement": "Ki", "setting": "5HT3 receptor [1]", "result": 0.833, "unit": "nM"}, {"measurement": "fitting model of interaction / displacement of ^3 H-GR 65630", "setting": "5HT3 receptor [1]", "result": "two site non-linear fitting model"}, {"measurement": "Ki", "setting": "5-HT3 receptor", "result": 96.2, "unit": "nM"}, {"measurement": "% inhibition", "setting": "5HT3 receptor [2]; 0.1 μg/kg I.V.", "result": "23.83 ± 5.50", "unit": "%"}, {"measurement": "% inhibition", "setting": "5HT3 receptor [2]; 0.3 μg/kg I.V.", "result": "55.69 ± 4.05", "unit": "%"}, {"measurement": "% inhibition", "setting": "5HT3 receptor [2]; 1 μg/kg I.V.", "result": "82.54 ± 2.33", "unit": "%"}, {"measurement": "ED50", "setting": "5HT3 receptor [2]", "result": 0.81, "unit": "µg/kg"}]}, {"smiles": "CN1C2CCC1CC(OC(=O)c1cc(Cl)cc(Cl)c1)C2", "note": "(stereo not drawn) [MDL 72222, reference compound]", "values": [{"measurement": "fitting model of interaction / displacement of ^3 H-GR 65630", "setting": "5HT3 receptor [1]", "result": "one site non-linear fitting"}]}, {"smiles": "CCN(CC)CCNC(=O)c1cc(Cl)c(N)cc1OC", "note": "[Metoclopramide, reference compound]", "values": [{"measurement": "fitting model of interaction / displacement of ^3 H-GR 65630", "setting": "5HT3 receptor [1]", "result": "one site non-linear fitting"}]}]}
